From the supplement of paper PMC9663587

What was measured:
Cediranib/AZD2171 = compound: COc1cc2c(Oc3ccc4[nH]c(C)cc4c3F)ncnc2cc1OCCCN1CCCC1 [Cediranib/AZD2171]
BVD523 = compound: CC(C)Nc1cc(-c2c[nH]c(C(=O)N[C@H](CO)c3cccc(Cl)c3)c2)c(Cl)cn1 [BVD523]
[1] = compound: CCCCOc1c(C(=O)c2c(F)cc(C)cc2F)c[nH]c2nncc1-2
Rucaparib = compound: CNCc1ccc(-c2[nH]c3cc(F)cc4c3c2CCNC4=O)cc1 [Rucaparib]
THZ1 [2] = compound: T1, CN(C)C/C=C/C(=O)Nc1ccc(C(=O)Nc2cccc(Nc3ncc(Cl)c(-c4c[nH]c5ccccc45)n3)c2)cc1 [THZ1]
THZ531 [3] = compound: T2, CN(C)C/C=C/C(=O)Nc1ccc(C(=O)N2CCC[C@@H](Nc3ncc(Cl)c(-c4c[nH]c5ccccc45)n3)C2)cc1 [THZ531]
Alpelisib/BYL719 = compound: Cc1nc(NC(=O)N2CCC[C@H]2C(N)=O)sc1-c1ccnc(C(C)(C)C(F)(F)F)c1 [Alpelisib/BYL719]
Saracatinib/AZD0530 = compound: CN1CCN(CCOc2cc(OC3CCOCC3)c3c(Nc4c(Cl)ccc5c4OCO5)ncnc3c2)CC1 [Saracatinib/AZD0530]
[4] = compound: CC(=O)Nc1cccc(-n2c(=O)n(C3CC3)c(=O)c3c(Nc4ccc(I)cc4F)n(C)c(=O)c(C)c32)c1
AZD1775 = compound: C=CCn1c(=O)c2cnc(Nc3ccc(N4CCN(C)CC4)cc3)nc2n1-c1cccc(C(C)(C)O)n1 [AZD1775]
[5] = compound: CO[C@@H](C)Cn1c(=O)n(C)c2cnc3ccc(-c4cncc(C(C)(C)O)c4)cc3c21
[6] = compound: CC(=O)c1c(C)c2cnc(Nc3ccc(N4CCNCC4)cn3)nc2n(C2CCCC2)c1=O; experiment: increase in dead-cell fraction, 72 h; higher = more death;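 further: breast cancer cell lines in 384-well plates, stained with Hoechst plus LIVE/DEAD far red dye and imaged, cells above an LDR intensity threshold counted dead, Hoechst-negative corpses included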
Neratinib/HKI272 = compound: CCOc1cc2ncc(C#N)c(Nc3ccc(OCc4ccccn4)c(Cl)c3)c2cc1NC(=O)/C=C/CN(C)C [Neratinib/HKI272]; experiment: as above
THZ1 [7] = compound: T1, THZ1; experiment: as above
THZ531 [8] = compound: T2, THZ531; experiment: as above
LEE011/Ribociclib = compound: CN(C)C(=O)c1cc2cnc(Nc3ccc(N4CCNCC4)cn3)nc2n1C1CCCC1 [LEE011/Ribociclib]; experiment: as above
[9] = compound: CCc1cnn2c(NCc3ccc[n+]([O-])c3)cc(N3CCCC[C@H]3CCO)nc12; experiment: as above
BSJ-03-123 = compound: CC(=O)c1c(C)c2cnc(Nc3ccc(N4CCN(CCOCCOCCOCCNC(=O)COc5cccc6c5C(=O)N(C5CCC(=O)NC5=O)C6=O)CC4)cn3)nc2n(C2CCCC2)c1=O [BSJ-03-123]; experiment: as above
YKL-5-124 = compound: C=CC(=O)Nc1ccc(C(=O)Nc2[nH]nc3c2CN(C(=O)N[C@H](CN(C)C)c2ccccc2)C3(C)C)cc1 [YKL-5-124]; experiment: as above
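Wherever GR50, 72 h is given: breast cancer and non-malignant breast epithelial cell lines, Deep Dye Drop or Dye Drop imaging, nine half-log doses, GR normalized to time-zero plates and DMSO-only controls.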

For HCC202, which “GR50, 72 h” value (Cediranib/AZD2171) is on record?
The value was 7.85 µM.

What about the “GR50, 72 h” value (BVD523) of the same cell line?
Its value is over 10 µM.

And the “GR50, 72 h” value [1]?
Its value is 0.0699 µM.

What about the “GR50, 72 h” value (Rucaparib) of the same cell line?
The value was over 10 µM.

And the “GR50, 72 h” value (THZ1 [2])?
The value was 0.0212 µM.

And the “GR50, 72 h” value (THZ531 [3])?
Its value is 0.0588 µM.

And the “GR50, 72 h” value (Alpelisib/BYL719)?
Its value is 0.465 µM.

What about the “GR50, 72 h” value (Saracatinib/AZD0530) of the same cell line?
Its value is 0.475 µM.

What about the “GR50, 72 h” value [4] of the same cell line?
The value was over 1 µM.

What about the “GR50, 72 h” value (AZD1775) of the same cell line?
Its value is 0.051 µM.

And the “GR50, 72 h” value [5]?
Its value is 0.00541 µM.

What about the “increase in dead-cell fraction” value ([6]; 0.0003162 µM) of the same cell line?
The value was 0.0137.

And the “increase in dead-cell fraction” value ([6]; 0.001 µM)?
Its value is -0.0003.

And the “increase in dead-cell fraction” value ([6]; 0.003162 µM)?
The value was 0.0115.

And the “increase in dead-cell fraction” value ([6]; 0.01 µM)?
Its value is 0.0189.

What about the “increase in dead-cell fraction” value ([6]; 0.03162 µM) of the same cell line?
Its value is 0.0085.

What about the “increase in dead-cell fraction” value ([6]; 0.1 µM) of the same cell line?
Its value is 0.0163.

And the “increase in dead-cell fraction” value ([6]; 0.3162 µM)?
Its value is 0.0112.

And the “increase in dead-cell fraction” value ([6]; 1 µM)?
Its value is 0.0306.

And the “increase in dead-cell fraction” value ([6]; 3.162 µM)?
The value was 0.0531.

What about the “increase in dead-cell fraction” value (Neratinib/HKI272; 0.0003162 µM) of the same cell line?
The value was -0.0093.

What about the “increase in dead-cell fraction” value (Neratinib/HKI272; 0.001 µM) of the same cell line?
The value was -0.0087.

And the “increase in dead-cell fraction” value (Neratinib/HKI272; 0.003162 µM)?
The value was 0.0183.

What about the “increase in dead-cell fraction” value (Neratinib/HKI272; 0.01 µM) of the same cell line?
The value was 0.0049.

And the “increase in dead-cell fraction” value (Neratinib/HKI272; 0.03162 µM)?
Its value is 0.0466.

And the “increase in dead-cell fraction” value (Neratinib/HKI272; 0.1 µM)?
The value was 0.0644.

What about the “increase in dead-cell fraction” value (Neratinib/HKI272; 0.3162 µM) of the same cell line?
Its value is 0.0996.

What about the “increase in dead-cell fraction” value (Neratinib/HKI272; 1 µM) of the same cell line?
Its value is 0.103.

And the “increase in dead-cell fraction” value (Neratinib/HKI272; 3.162 µM)?
Its value is 0.136.

What about the “increase in dead-cell fraction” value (THZ1 [7]; 0.0001 µM) of the same cell line?
Its value is 0.0041.

And the “increase in dead-cell fraction” value (THZ1 [7]; 0.0003162 µM)?
The value was -0.0036.

And the “increase in dead-cell fraction” value (THZ1 [7]; 0.001 µM)?
Its value is 0.0114.

What about the “increase in dead-cell fraction” value (THZ1 [7]; 0.003162 µM) of the same cell line?
Its value is 0.0077.

And the “increase in dead-cell fraction” value (THZ1 [7]; 0.01 µM)?
Its value is 0.0009.

And the “increase in dead-cell fraction” value (THZ1 [7]; 0.03162 µM)?
The value was 0.0391.

What about the “increase in dead-cell fraction” value (THZ1 [7]; 0.1 µM) of the same cell line?
Its value is 0.0709.

What about the “increase in dead-cell fraction” value (THZ1 [7]; 0.3162 µM) of the same cell line?
Its value is 0.103.

And the “increase in dead-cell fraction” value (THZ1 [7]; 1 µM)?
The value was 0.164.

What about the “increase in dead-cell fraction” value (THZ531 [8]; 0.0001 µM) of the same cell line?
The value was -0.0053.

And the “increase in dead-cell fraction” value (THZ531 [8]; 0.0003162 µM)?
The value was 0.002.

And the “increase in dead-cell fraction” value (THZ531 [8]; 0.001 µM)?
Its value is -0.0003.

What about the “increase in dead-cell fraction” value (THZ531 [8]; 0.003162 µM) of the same cell line?
Its value is -0.0311.

And the “increase in dead-cell fraction” value (THZ531 [8]; 0.01 µM)?
The value was 0.0109.

And the “increase in dead-cell fraction” value (THZ531 [8]; 0.03162 µM)?
Its value is 0.0036.

And the “increase in dead-cell fraction” value (THZ531 [8]; 0.1 µM)?
Its value is 0.066.

And the “increase in dead-cell fraction” value (THZ531 [8]; 0.3162 µM)?
The value was 0.128.

And the “increase in dead-cell fraction” value (THZ531 [8]; 1 µM)?
Its value is 0.088.

What about the “increase in dead-cell fraction” value (LEE011/Ribociclib; 0.001 µM) of the same cell line?
The value was 0.0107.

And the “increase in dead-cell fraction” value (LEE011/Ribociclib; 0.003162 µM)?
Its value is -0.0028.

What about the “increase in dead-cell fraction” value (LEE011/Ribociclib; 0.01 µM) of the same cell line?
The value was 0.0035.

And the “increase in dead-cell fraction” value (LEE011/Ribociclib; 0.03162 µM)?
The value was 0.0081.

What about the “increase in dead-cell fraction” value (LEE011/Ribociclib; 0.1 µM) of the same cell line?
The value was 0.0043.

And the “increase in dead-cell fraction” value (LEE011/Ribociclib; 0.3162 µM)?
The value was 0.0132.

And the “increase in dead-cell fraction” value (LEE011/Ribociclib; 1 µM)?
The value was 0.0255.

What about the “increase in dead-cell fraction” value (LEE011/Ribociclib; 3.162 µM) of the same cell line?
The value was 0.0242.

What about the “increase in dead-cell fraction” value (LEE011/Ribociclib; 10 µM) of the same cell line?
Its value is 0.0292.

What about the “increase in dead-cell fraction” value ([9]; 0.0001 µM) of the same cell line?
Its value is 0.0056.

And the “increase in dead-cell fraction” value ([9]; 0.0003162 µM)?
Its value is 0.0103.

And the “increase in dead-cell fraction” value ([9]; 0.001 µM)?
Its value is -0.0029.

And the “increase in dead-cell fraction” value ([9]; 0.003162 µM)?
The value was -0.0193.

What about the “increase in dead-cell fraction” value ([9]; 0.01 µM) of the same cell line?
The value was -0.0112.

And the “increase in dead-cell fraction” value ([9]; 0.03162 µM)?
Its value is 0.132.

And the “increase in dead-cell fraction” value ([9]; 0.1 µM)?
Its value is 0.106.

And the “increase in dead-cell fraction” value ([9]; 0.3162 µM)?
Its value is 0.122.

And the “increase in dead-cell fraction” value ([9]; 1 µM)?
Its value is 0.126.

And the “increase in dead-cell fraction” value (BSJ-03-123; 0.001 µM)?
The value was 0.0092.

And the “increase in dead-cell fraction” value (BSJ-03-123; 0.003162 µM)?
Its value is 0.0099.

What about the “increase in dead-cell fraction” value (BSJ-03-123; 0.01 µM) of the same cell line?
Its value is 0.0404.

And the “increase in dead-cell fraction” value (BSJ-03-123; 0.03162 µM)?
Its value is 0.0154.

And the “increase in dead-cell fraction” value (BSJ-03-123; 0.1 µM)?
The value was 0.0009.

What about the “increase in dead-cell fraction” value (BSJ-03-123; 0.3162 µM) of the same cell line?
The value was 0.0019.

And the “increase in dead-cell fraction” value (BSJ-03-123; 1 µM)?
The value was 0.0243.

And the “increase in dead-cell fraction” value (BSJ-03-123; 3.162 µM)?
Its value is 0.0201.

What about the “increase in dead-cell fraction” value (BSJ-03-123; 10 µM) of the same cell line?
Its value is 0.126.

What about the “increase in dead-cell fraction” value (YKL-5-124; 0.001 µM) of the same cell line?
Its value is 0.0491.

And the “increase in dead-cell fraction” value (YKL-5-124; 0.003162 µM)?
The value was 0.0507.

What about the “increase in dead-cell fraction” value (YKL-5-124; 0.01 µM) of the same cell line?
Its value is 0.0643.

And the “increase in dead-cell fraction” value (YKL-5-124; 0.03162 µM)?
The value was 0.0596.

And the “increase in dead-cell fraction” value (YKL-5-124; 0.1 µM)?
The value was 0.0803.

What about the “increase in dead-cell fraction” value (YKL-5-124; 0.3162 µM) of the same cell line?
The value was 0.0716.

What about the “increase in dead-cell fraction” value (YKL-5-124; 1 µM) of the same cell line?
The value was 0.0671.

What about the “increase in dead-cell fraction” value (YKL-5-124; 3.162 µM) of the same cell line?
The value was 0.081.

And the “increase in dead-cell fraction” value (YKL-5-124; 10 µM)?
Its value is 0.213.
